In patent US20250288704A1, “CXCR4-LIGANDS FOR DIAGNOSTIC AND THERAPEUTIC USE AND PRECURSORS THEREOF” (priority 2021, published 2025):
Starred links: 1 amine or outer side, 2 acyl side, 3 side chain; linkers in the order of their positions; H or OH if unused. Positions of bridges follow the written chain, without caps; N, C: chain ends. Non-standard residues stand in square brackets, D forms with d. Residues, ends and D or L forms follow the SMILES beside them. Groups on a side chain read outwards from the residue. Chains are numbered I, II in the order given. *: point of attachment. X7 = O=C(O)CN1CCN(CC(=O)O)CCN([C@H](CCC(=O)*)C(=O)O)CCN(CC(=O)O)CC1; Benzoyl(4-SiFtBu2) = CC(C)(C)[Si](F)(c1ccc(C(=O)*)cc1)C(C)(C)C; DOTA = O=C(O)CN1CCN(CC(=O)O)CCN(CC(=O)*)CCN(CC(=O)O)CC1; d(γGlu) = O=C(O)[C@@H](CCC(=O)[*:2])N[*:1]; dTyr(3-I) = N[C@H](Cc1ccc(O)c(I)c1)C(=O)O; 2Nal = N[C@@H](Cc1ccc2ccccc2c1)C(=O)O; dNMeOrn = CN[C@H](CCCN)C(=O)O; 4Abz = Nc1ccc(C(=O)O)cc1; dDap = NC[C@@H](N)C(=O)O; CO = O=C([*:1])[*:2]; Ahx = NCCCCCC(=O)O

Experiments:
[1] = Biodistribution in Jurkat tumor-bearing CB-17 SCID mice; assay type: in vivo; parameters: tissue to tissue ratio at 1 h / tissue to tissue ratio / tissue to tissue ratio at 48 h: reference not given here; conditions: CB-17 SCID, mouse, in vivo, iv, total radioactivity
Outline: (§1)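 Radioligand (125I, 177Lu, 99mTc, 18F or 68Ga label; roughly 0.5-20 MBq, 0.02-0.20 nmol) was injected intravenously via tail vein. Hosts were CB17-SCID mice with subcutaneous Jurkat tumors of 5-8 mm, 4-10 weeks post-inoculation. Dissected organs were weighed and counted in a γ-counter.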

[2] = test system: Jurkat tumor-bearing CB-17 SCID mice; assay: as above; assay type: in vivo; parameters: tissue to tissue ratio at 1 h / tissue to tissue ratio / tissue to tissue ratio at 48 h: reference not given here; conditions: mouse, in vivo
Outline: as §1

[3] = Octanol/PBS partition coefficient (logD7.4); assay type: physicochemical; conditions: n-octanol/PBS pH 7.4, radiolabeled compound
Experimental: The tubes were vortexed at maximum speed for 3 min to ensure equilibrium before centrifugation at 15.000×g for 5 min on a Biofuge 15 from Heraeus Holding GmbH (Osterode, Germany). An aliquot of 100 μL of each fraction was measured in the γ-counter and the log D7.4 calculated as follows: […]

CXCR4 = CXCR4 (Homo sapiens, UniProt P61073); assay: Determination of IC50: competition with 125I-Fc-131 on CXCR4-positive Jurkat cells; assay type: binding; parameters: CXCR4-positive Jurkat T lymphocyte cells were grown in Gibco's RPMI 1640 GlutaMAX medium; endogenous in cells; host or cells: Jurkat T lymphocyte cells (whole cells in suspension, 400.000 per tube); conditions: unlabeled or cold (natGa/natLu) compound vs 125I-Fc-131, Jurkat cells;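 further: test compound at 10^−5 to 10^−11 M competed for 2 h at 8 °C with the radioligand on 400,000 cells per well, bound versus free activity measured by γ-counting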
Sequence of CXCR4 (P61073 whole entry): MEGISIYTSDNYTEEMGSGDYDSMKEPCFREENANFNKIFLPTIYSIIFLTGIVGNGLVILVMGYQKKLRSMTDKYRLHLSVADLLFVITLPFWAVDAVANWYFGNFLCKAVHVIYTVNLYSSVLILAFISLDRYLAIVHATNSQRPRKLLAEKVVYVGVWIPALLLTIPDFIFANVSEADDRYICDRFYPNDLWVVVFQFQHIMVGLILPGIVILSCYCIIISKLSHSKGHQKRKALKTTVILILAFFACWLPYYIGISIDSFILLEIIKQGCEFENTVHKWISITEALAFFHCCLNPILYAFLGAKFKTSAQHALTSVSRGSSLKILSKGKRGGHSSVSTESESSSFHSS
Experimental: For in vitro experiments, cells were counted in a hemocytometer using trypan blue as contrast agent. The cell suspension was centrifuged, and the pellet resuspended in HBSS (+1 wt % BSA) to a concentration of 2 mio cells/mL. […] 200 μL of cell suspension (400.000 cells per well) were added to obtain a final peptide concentration range of 10^−5-10^−11 M. The tubes were cooled for 2 h at 8° C. to prevent internalization. The experiment was stopped by removal of the supernatant. 200 μL HBSS were added onto the cells, the suspension centrifuged, and the supernatant pooled with the respective first fractions. This step was repeated once more before the tubes containing the supernatants and the ones containing the cell pellets were subjected to activity measurement in the γ-counter.

[4] = test system: CXCR4-expressing Chem_1 cells; assay: Determination of internalization, dual tracer with 125I-Fc-131; assay type: cell-based; conditions: for Cell-bound [%] / Internalized [%]: of total cellular activity
Outline: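 Receptor blockade used AMD3100 (1 mM stock) versus medium-treated wells, triplicate per time point, in Chem_1 cells cultured at 37 °C in DMEM-F12/10% FBS. Activity of supernatant, surface-bound and internalized (1 M NaOH) fractions measured by γ-counter, corrected for non-specific uptake and normalised to standard ligand.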

With C[C@@H](NC(=O)[C@@H](CCCNC(=N)N)NC(=O)[C@@H](CN)NC(=O)CN1CCN(CC(=O)O)CCN(CC(=O)O)CCN(CC(=O)O)CC1)C(=O)Nc1ccc(C(=O)NCCC[C@@H]2C(=O)N[C@@H](CCCNC(=N)N)C(=O)N[C@@H](Cc3ccc4ccccc4c3)C(=O)NCC(=O)N[C@H](Cc3ccc(O)c(I)c3)C(=O)N2C)cc1 [CXCR4-DOTA-4 [Lu]] (cyclo([dTyr(3-I)][dNMeOrn]([4Abz-dA-dR-dDap-DOTA])R[2Nal]G)) as the compound, how does the tissue to tissue ratio [1] read?
The tissue to tissue ratio was 156.

What about the tissue to tissue ratio at 1 h [1] of the same compound?
The tissue to tissue ratio at 1 h was 3.6.

What about the tissue to tissue ratio at 48 h [1] of the same compound?
Its tissue to tissue ratio at 48 h is 362.

And the tissue uptake at 1 h ([1]; Tumor activity 1 h p.i.)?
The tissue uptake at 1 h was 6.19 %ID/g.

And the tissue uptake at 6 h ([1]; Tumor activity 6 h p.i.)?
The tissue uptake at 6 h was 7.78 %ID/g.

And the tissue uptake at 48 h ([1]; Tumor activity 48 h p.i.)?
Its tissue uptake at 48 h is 7.23 %ID/g.

What about the tissue uptake at 1 h ([1]; female, % iD/g Blood) of the same compound?
The tissue uptake at 1 h was 1.72 %ID/g.

And the tissue uptake at 6 h ([1]; female, % iD/g Blood)?
Its tissue uptake at 6 h is 0.05 %ID/g.

What about the tissue uptake at 48 h ([1]; female, % iD/g Blood) of the same compound?
Its tissue uptake at 48 h is 0.02 %ID/g.

What about the tissue uptake at 1 h ([1]; female, % iD/g Bone) of the same compound?
The tissue uptake at 1 h was 1.07 %ID/g.

What about the tissue uptake at 6 h ([1]; female, % iD/g Bone) of the same compound?
Its tissue uptake at 6 h is 0.57 %ID/g.

And the tissue uptake at 48 h ([1]; female, % iD/g Bone)?
The tissue uptake at 48 h was 1.47 %ID/g.

And the tissue uptake at 1 h ([1]; female, % iD/g Heart)?
Its tissue uptake at 1 h is 1.13 %ID/g.

And the tissue uptake at 6 h ([1]; female, % iD/g Heart)?
The tissue uptake at 6 h was 0.22 %ID/g.

And the tissue uptake at 48 h ([1]; female, % iD/g Heart)?
The tissue uptake at 48 h was 0.21 %ID/g.

And the tissue uptake at 1 h ([1]; female, % iD/g Intestine)?
The tissue uptake at 1 h was 0.87 %ID/g.

And the tissue uptake at 6 h ([1]; female, % iD/g Intestine)?
Its tissue uptake at 6 h is 0.82 %ID/g.

And the tissue uptake at 48 h ([1]; female, % iD/g Intestine)?
Its tissue uptake at 48 h is 0.28 %ID/g.

And the tissue uptake at 1 h ([1]; female, % iD/g Kidney)?
The tissue uptake at 1 h was 14.4 %ID/g.

What about the tissue uptake at 6 h ([1]; female, % iD/g Kidney) of the same compound?
Its tissue uptake at 6 h is 11.3 %ID/g.

What about the tissue uptake at 48 h ([1]; female, % iD/g Kidney) of the same compound?
Its tissue uptake at 48 h is 5.31 %ID/g.

What about the tissue uptake at 1 h ([1]; female, % iD/g Liver) of the same compound?
The tissue uptake at 1 h was 19.2 %ID/g.

And the tissue uptake at 6 h ([1]; female, % iD/g Liver)?
The tissue uptake at 6 h was 20.5 %ID/g.

What about the tissue uptake at 48 h ([1]; female, % iD/g Liver) of the same compound?
The tissue uptake at 48 h was 21.7 %ID/g.

And the tissue uptake at 1 h ([1]; female, % iD/g Lung)?
The tissue uptake at 1 h was 3.69 %ID/g.

And the tissue uptake at 6 h ([1]; female, % iD/g Lung)?
Its tissue uptake at 6 h is 0.6 %ID/g.

What about the tissue uptake at 48 h ([1]; female, % iD/g Lung) of the same compound?
The tissue uptake at 48 h was 0.47 %ID/g.

And the tissue uptake at 1 h ([1]; female, % iD/g Muscle)?
Its tissue uptake at 1 h is 0.3 %ID/g.

And the tissue uptake at 6 h ([1]; female, % iD/g Muscle)?
The tissue uptake at 6 h was 0.07 %ID/g.

What about the tissue uptake at 48 h ([1]; female, % iD/g Muscle) of the same compound?
The tissue uptake at 48 h was 0.05 %ID/g.

What about the tissue uptake at 1 h ([1]; female, % iD/g Pancreas) of the same compound?
Its tissue uptake at 1 h is 0.52 %ID/g.

And the tissue uptake at 6 h ([1]; female, % iD/g Pancreas)?
The tissue uptake at 6 h was 0.16 %ID/g.

What about the tissue uptake at 48 h ([1]; female, % iD/g Pancreas) of the same compound?
The tissue uptake at 48 h was 0.24 %ID/g.

And the tissue uptake at 1 h ([1]; female, % iD/g Spleen)?
Its tissue uptake at 1 h is 4.57 %ID/g.

What about the tissue uptake at 6 h ([1]; female, % iD/g Spleen) of the same compound?
The tissue uptake at 6 h was 2.68 %ID/g.

What about the tissue uptake at 48 h ([1]; female, % iD/g Spleen) of the same compound?
Its tissue uptake at 48 h is 3.63 %ID/g.

What about the tissue uptake at 1 h ([1]; female, % iD/g Stomach) of the same compound?
Its tissue uptake at 1 h is 1.35 %ID/g.

What about the tissue uptake at 6 h ([1]; female, % iD/g Stomach) of the same compound?
The tissue uptake at 6 h was 0.41 %ID/g.

And the tissue uptake at 48 h ([1]; female, % iD/g Stomach)?
The tissue uptake at 48 h was 0.23 %ID/g.

What about the tissue uptake at 1 h ([1]; female, % iD/g Tumor) of the same compound?
The tissue uptake at 1 h was 6.19 %ID/g.

What about the tissue uptake at 6 h ([1]; female, % iD/g Tumor) of the same compound?
Its tissue uptake at 6 h is 7.78 %ID/g.

And the tissue uptake at 48 h ([1]; female, % iD/g Tumor)?
Its tissue uptake at 48 h is 7.23 %ID/g.

And the “Calculated tumor retention 6 h compared to the 1 h-value” [2]?
The value was 126%.

What about the “Calculated tumor retention 48 h compared to the 1 h-value” [2] of the same compound?
Its value is 117%.

For C[C@@H](NC(=O)[C@@H](CCCNC(=N)N)NC(=O)[C@@H](CN)NC(=O)CCCCCNC(=O)[C@@H](CNC(=O)CC[C@H](C(=O)O)N1CCN(CC(=O)O)CCN(CC(=O)O)CCN(CC(=O)O)CC1)NC(=O)[C@@H](CNC(=O)c1ccc([Si](F)(C(C)(C)C)C(C)(C)C)cc1)NC(=O)CC[C@@H](NC(=O)N[C@H](CCC(=O)O)C(=O)O)C(=O)O)C(=O)Nc1ccc(C(=O)NCCC[C@@H]2C(=O)N[C@@H](CCCNC(=N)N)C(=O)N[C@@H](Cc3ccc4ccccc4c3)C(=O)NCC(=O)N[C@H](Cc3ccc(O)cc3)C(=O)N2C)cc1 [CXCR4-SiFA-5 [Ga]] (I: {dE-CO-d(γGlu)}-[dDap](Benzoyl(4-SiFtBu2))[dDap](X7)[Ahx][dDap][dR][dA][4Abz] / II: cyclo([dY][dNMeOrn]R[2Nal]G); amide I:C-II:2), which logD7.4 [3] is on record?
Its logD7.4 is −1.85 ± 0.07 (7).

And the IC50 (CXCR4)?
Its IC50 is 36.5 ± 4.51 nM.

What about the “Internalized in relation to 125I-Fc-131 [%]” value (from here on “Internalized in relation … [%]”) ([4]; 30 min) of the same compound?
Its value is 233 ± 44.1%.

And the “Cell-bound [%]” value ([4]; 30 min)?
Its value is 0.66 ± 0.22%.

And the “Internalized [%]” value ([4]; 30 min)?
The value was 3.46 ± 0.57%.

And the “Internalization [% Fc-131]” value ([4]; 90 min)?
Its value is 209 % Fc-131.

What about the “Internalized in relation … [%]” value ([4]; 90 min) of the same compound?
The value was 209 ± 27.2%.

And the “Cell-bound [%]” value ([4]; 90 min)?
Its value is 0.72 ± 0.34%.

And the “Internalized [%]” value ([4]; 90 min)?
Its value is 3.70 ± 0.41%.

For C[C@@H](NC(=O)[C@@H](CCCNC(=N)N)NC(=O)[C@@H](CN)NC(=O)CCCCCNC(=O)[C@@H](CNC(=O)CC[C@H](C(=O)O)N1CCN(CC(=O)O)CCN(CC(=O)O)CCN(CC(=O)O)CC1)NC(=O)C[N+](C)(C)Cc1ccc([Si](F)(C(C)(C)C)C(C)(C)C)cc1)C(=O)Nc1ccc(C(=O)NCCC[C@@H]2C(=O)N[C@@H](CCCNC(=N)N)C(=O)N[C@@H](Cc3ccc4ccccc4c3)C(=O)NCC(=O)N[C@H](Cc3ccc(O)cc3)C(=O)N2C)cc1 [CXCR4-SiFA-6 [Ga]], which logD7.4 [3] is on record?
Its logD7.4 is −1.05 ± 0.06 (8).

What about the IC50 (CXCR4) of the same compound?
Its IC50 is 5.52 ± 0.71 nM.

And the “Internalized in relation … [%]” value ([4]; 30 min)?
Its value is 829 ± 48.1%.

And the “Cell-bound [%]” value ([4]; 30 min)?
The value was 0 ± 0.29%.

And the “Internalized [%]” value ([4]; 30 min)?
The value was 37.0 ± 1.06%.

And the “Internalization [% Fc-131]” value ([4]; 90 min)?
The value was 980 % Fc-131.

What about the “Internalized in relation … [%]” value ([4]; 90 min) of the same compound?
Its value is 980 ± 85.6%.

What about the “Cell-bound [%]” value ([4]; 90 min) of the same compound?
Its value is 0.81 ± 0.14%.

And the “Internalized [%]” value ([4]; 90 min)?
Its value is 48.1 ± 1.26%.
